Values after ≈ are worked out from the molar mass of the structure shown.

In this assay the test system is Mycobacterium tuberculosis. The assay is described as follows: Antimycobacterial activity against Mycobacterium tuberculosis H37Rv ATCC 27294 by microplate alamar blue assay. The assay is classed as functional. In general terms: Alamar Blue is a resazurin reagent that responds to reducing activity.
Broadly, the MIC is the lowest concentration found to suppress growth. The low end stands for inhibition by little substance, the high end for a need for much substance. In turn, `CCC(CO)NC(=O)CO` (centres undefined) displayed an MIC of 29.5 µg/mL (≈ 200 µM).

As to `O=C(CO)N1CCCCC1`, the MIC stood at 38.8 µg/mL (≈ 271 µM).

In turn, `O=C(CO)N1CCOCC1` yielded an MIC of 13.8 µg/mL (≈ 94.7 µM).

`O=C(CO)NCCc1ccccc1` returned a minimum inhibitory concentration (MIC) of 74 µg/mL (≈ 413 µM).

Turning to `O=C(CO)NCCO`, 87.5 µg/mL (≈ 735 µM) was the least that counted as inhibitory (MIC).

Turning to `O=C(CO)N1CCCC(O)C1` (centres undefined), it took 60 µg/mL (≈ 377 µM) to inhibit growth (MIC). This MIC and that of the molecule before are within 1.5-fold of each other.

Regarding `O=C(CO)N1CCN(C(=O)CO)CC1`, the MIC turned out to be 15.8 µg/mL (≈ 77.9 µM).

With `O=C(CO)N1CCCC1`, it took 25.5 µg/mL (≈ 197 µM) to inhibit growth (MIC).

Molecule `O=C(CO)N1CCC(O)CC1` had a minimum inhibitory concentration (MIC) of 33.2 µg/mL (≈ 209 µM). This MIC and that of the molecule before are within 1.5-fold of each other.

`CC(CO)(CO)NC(=O)CO` yielded an MIC of 67.5 µg/mL (≈ 414 µM).

The molecule `O=C(CO)N1CCN(CCO)CC1` had an MIC of 14.2 µg/mL (≈ 75.7 µM).

The molecule `O=C(CO)NN1CCOCC1` returned a minimum inhibitory concentration (MIC) of 57 µg/mL (≈ 356 µM).

Regarding `O=C(CO)N(CCO)CCO`, the minimal inhibitory concentration (MIC) worked out at 12.5 µg/mL (≈ 76.6 µM).

`CC[C@@H](CO)NCCN[C@@H](CC)CO` [ETHAMBUTOL] showed an MIC of 5 µg/mL (≈ 24.5 µM).
